Data published in patent US20240360114A1 (SIRONAX LTD., priority 2021, published 2024).

Test system: HT-1080 cells
Assay: HT-1080 cell viability assay (ferroptosis induced by RSL3, Cell Titer-Glo)
Type: cell-based
Settings: Homo sapiens, ferroptosis inducer RSL3, 20 hours, ferroptosis inhibitory activity
In short: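 EC50 fitted by sigmoidal dose-response regression on luminescent viability data normalized to untreated cells. Compounds ran as a 10-point, 3-fold series from 1.1 μM alongside RSL3 for 20 hours, after overnight seeding.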

| SMILES | EC50 (HT-1080, 20 h, Table 2) [nM] | further results |
| --- | --- | --- |
| CCCCCN(CC)c1ccc(NC[C@H]2CC[C@H](N)CC2)cc1 [Compound 386, N1-(((1r,4r)-4-aminocyclohexyl)methyl)-N4-ethyl-N4-pentylbenzene-1,4-diamine] | 0.1 to 100 | – |
| CC(=O)NC1CCC(Nc2ccc(C(C)(C)C)cc2)CC1 (single isomer, unassigned) [Compound 216A, N-(4-((4-(tert-butyl)phenyl)amino)cyclohexyl)acetamide] | 100 to 1000 | – |
| CC(C)C1CCN(c2ncc(NC3CCC(CN)CC3)cn2)CC1 (stereo not shown) [Compound 24A, N-(4-(aminomethyl)cyclohexyl)-2-(4-isopropylpiperidin-1-yl)pyrimidin-5-amine] | – | EC50 (Table 2): 0.1 to 100 nM |
| Cc1cc(C)c(NC2CCC(CN)CC2)c(C)c1 (stereo not shown) [Compound 210, N-[4-(aminomethyl)cyclohexyl]-2,4,6-trimethylaniline] | 1000 to 10000 | – |
| CCN(CCCOC)c1ccc(NC[C@H]2CC[C@H](N)CC2)cc1 [Compound 385, N1-(((1r,4r)-4-aminocyclohexyl)methyl)-N4-ethyl-N4-(3-methoxypropyl) benzene-1,4-diamine] | 100 to 1000 | – |
| CC1(C)CCC(c2ccc(NC3CCC(N)(CO)CC3)cc2)CC1 (stereo not shown) [Compound 275A] | 0.1 to 100 | – |
| CC(C)(C)c1ccc(NC2CCC(NCC(O)CN)CC2)cc1 (stereo not shown) [Compound 349A, 1-amino-3-((4-((4-(tert-butyl)phenyl)amino)cyclohexyl)amino)propan-2-ol] | 0.1 to 100 | – |
| Cc1nc(N2C3CCC2CC3)ccc1NC1CC2(CC(N)C2)C1 (stereo not shown) [Compound 587, N2-(6-(7-azabicyclo[2.2.1]heptan-7-yl)-2-methylpyridin-3-yl)spiro[3.3]heptane-2,6-diamine] | – | EC50 (HT-1080, 20 h, Table 3): 100 to 1000 nM |
| CCCc1ccc(NC2CCC(CCN)CC2)cc1 (stereo not shown) [Compound 292, N-(4-(2-aminoethyl)cyclohexyl)-4-propylaniline] | 0.1 to 100 | – |
| CC1(C)CCC(c2ccc(NC3CCNCC3)cc2)CC1 [Compound 131, N-(4-(4,4-dimethylcyclohexyl)phenyl)piperidin-4-amine] | 0.1 to 100 | – |
| CCCc1nc(N2C[C@@H](C)O[C@@H](C)C2)ccc1NC1CC2(CC(N)C2)C1 (stereo partly drawn) [Compound 609, N2-(6-((2S, 6R)-2,6-dimethylmorpholino)-2-propylpyridin-3-yl)spiro[3.3]heptane-2,6-diamine] | – | EC50 (HT-1080, 20 h, Table 3): 0.1 to 100 nM |
| CC(C)(C)c1ccc(NC2CC(N)C2)cc1 (stereo not shown) [Compound 123, N1-(4-(tert-butyl)phenyl)cyclobutane-1,3-diamine] | 100 to 1000 | – |
| CC(C)(C)c1ccc(NCCN2CCCC2)cc1 [Compound 202, 2-(pyrrolidin-1-yl) acetaldehyde--4-(tert-butyl)-N-(2-(pyrrolidin-1-yl)ethyl)aniline-4-(tert-butyl)aniline] | 1000 to 10000 | – |
| Cc1cc(NC2CCC(C)(N)CC2)cc(C)c1C (single isomer, unassigned) [Compound 313A, 1-methyl-N4-(3,4,5-trimethylphenyl)cyclohexane-1,4-diamine] | 0.1 to 100 | – |
| CC1(C)CCC(c2ccc(NCCCN3CCCC3)cc2)CC1 [Compound 171, 4-(4,4-dimethylcyclohexyl)-N-(3-(pyrrolidin-1-yl)propyl)aniline] | 0.1 to 100 | – |
| COCCN(CC(F)(F)F)c1ccc(NC2CC3(CC(N)C3)C2)c(C)n1 (stereo not shown) [Compound 660, N^5-(6-aminospiro[3.3]heptan-2-yl)-N^2-(2-methoxyethyl)-6-methyl-N2-(2,2,2-trifluoroethyl)pyridine-2,5-diamine] | – | EC50 (HT-1080, 20 h, Table 3): 0.1 to 100 nM |
| Cc1cc(N2CC(C)OC(C)C2)ccc1NC[C@H]1CC[C@H](N)CC1 (stereo partly shown) [Compound 387, N-(((1r,4r)-4-aminocyclohexyl)methyl)-4-(2,6-dimethylmorpholino)-2-methylaniline] | 0.1 to 100 | – |
| NC(=O)N1CCC(Nc2ccc3cc(N4CCC(C(F)(F)F)CC4)ccc3c2)CC1 [Compound 633, 4-((6-(4-(trifluoromethyl)piperidin-1-yl)naphthalen-2-yl)amino)piperidine-1-carboxamide] | – | EC50 (HT-1080, 20 h, Table 3): 0.1 to 100 nM |
| NC1CC(Nc2ccc(C3CCCCC3)cc2)C1 (stereo not shown) [Compound 132, N1-(4-cyclohexylphenyl)cyclobutane-1,3-diamine] | 0.1 to 100 | – |
| Cc1nc(N2CC(C)OC(C)C2)ccc1NCC1CC2(CC(N)C2)C1 (stereo not shown) [Compound 512, N-((6-aminospiro [3.3]heptan-2-yl)methyl)-6-(2,6-dimethylmorpholino)-2-methylpyridin-3-amine] | 0.1 to 100 | – |
| CC(C)Oc1ccc(NC[C@H]2CC[C@H](N)CC2)cc1 [Compound 353, N-(((1r,4r)-4-aminocyclohexyl)methyl)-4-isopropoxyaniline] | 0.1 to 100 | – |

The next lines start with results.

| EC50 (HT-1080, 20 h, Table 2) [nM] | SMILES | further results |
| --- | --- | --- |
| 100 to 1000 | CCOCCCc1ccc(N[C@H]2CC[C@H](N)CC2)cc1 [Compound 293, (1r,4r)-N1-(4-(3-ethoxypropyl)phenyl)cyclohexane-1,4-diamine] | – |
| 0.1 to 100 | Cc1nc(N2CCC(C(F)(F)F)CC2)ccc1NC1CC2(CC(N)C2)C1 (stereo not shown) [Compound 376, N2-(2-methyl-6-(4-(trifluoromethyl)piperidin-1-yl)pyridin-3-yl) spiro[3.3]heptane-2,6-diamine] | – |
| 100 to 1000 | CC1(C)CCC(c2ccc(NC3CCC(NC(N)=O)CC3)cc2)CC1 (stereo not shown) [Compound 248, 1-(4-((4-(4,4-dimethylcyclohexyl)phenyl)amino)cyclohexyl)urea] | – |
| 0.1 to 100 | CC1CN(c2ccc(NC[C@H]3CC[C@H](N)CC3)c(F)c2)CC(C)O1 (stereo partly shown) [Compound 431, N-(((1r,4r)-4-aminocyclohexyl)methyl)-4-(2,6-dimethylmorpholino)-2-fluoroaniline] | – |
| 1000 to 10000 | NC1CCC(Nc2ccc(F)cc2)CC1 (stereo not shown) [Compound 134, N1-(4-fluorophenyl)cyclohexane-1,4-diamine] | – |
| 0.1 to 100 | CCC1CCN(c2ccc(NC[C@H]3CC[C@H](N)CC3)c(C)c2)CC1 [Compound 389, N-(((1r,4r)-4-aminocyclohexyl)methyl)-4-(4-ethylpiperidin-1-yl)-2-methylaniline] | – |
| 0.1 to 100 | CC(C)C1CCN(c2ncc(NC3CCC(N)CC3)cn2)CC1 (stereo not shown) [Compound 34A, N1-(2-(4-isopropylpiperidin-1-yl)pyrimidin-5-yl)cyclohexane-1,4-diamine] | – |
| 0.1 to 100 | CC(C)(C)c1ccc(-c2ccc(NC3CCC(N)CC3)cc2)cc1 (stereo not shown) [Compound 220, N1-(4′-(tert-butyl)-[1,l′-biphenyl]-4-yl)cyclohexane-1,4-diamine] | – |
| 0.1 to 100 | CC(C)C1CCN(c2ncc(NC3CC4(CC(NC(=O)C(N)=O)C4)C3)cn2)CC1 (stereo not shown) [Compound 403, N1-(6-((2-(4-isopropylpiperidin-1-yl)pyrimidin-5-yl)amino)spiro[3.3]heptan-2-yl)oxalamide] | – |
| 0.1 to 100 | O=C(NO)C1CC2(CC(Nc3cnc(N4CCC(C(F)(F)F)CC4)nc3)C2)C1 (stereo not shown) [Compound 428, N-hydroxy-6-((2-(4-(trifluoromethyl)piperidin-1-yl)pyrimidin-5-yl)amino)spiro[3.3]heptane-2-carboxamide] | – |
| 1000 to 10000 | CCc1ccc(NC2CCC(N)CC2)cn1 (stereo not shown) [Compound 208, N1-(6-ethylpyridin-3-yl)cyclohexane-1,4-diamine] | – |
| 0.1 to 100 | NCC1CCC(Nc2ccc3c(c2)CCC3)CC1 (stereo not shown) [Compound 235, N-(4-(aminomethyl)cyclohexyl)-2,3-dihydro-1H-inden-5-amine] | – |
| 100 to 1000 | CC1CN(c2ccc(NC[C@H]3CC[C@H](N)CC3)c(C(F)(F)F)c2)CC(C)O1 (stereo partly shown) [Compound 466, N-(((1r,4r)-4-aminocyclohexyl)methyl)-4-(2,6-dimethylmorpholino)-2-(trifluoromethyl)aniline] | – |
| 100 to 1000 | NCCOc1cc(NC2CCC(N)CC2)ccc1N1CCC(C(F)(F)F)CC1 (stereo not shown) [Compound 41A, N1-(3-(2-aminoethoxy)-4-(4-(trifluoromethyl)piperidin-1-yl)phenyl)cyclohexane-1,4-diamine] | – |
| 0.1 to 100 | Cc1cc(N2CCC(C(F)(F)F)CC2)ccc1NCCCC[C@H]1CC[C@H](N)CC1 [Compound 447, N-(4-((1r,4s)-4-aminocyclohexyl)butyl)-2-methyl-4-(4-(trifluoromethyl)piperidin-1-yl)aniline] | – |
| 0.1 to 100 | COCCCOc1cc(NC2CCC(N)CC2)ccc1C(C)(C)C (stereo not shown) [Compound 300A, N1-(4-(tert-butyl)-3-(3-methoxypropoxy)phenyl)cyclohexane-1,4-diamine] | – |
| 0.1 to 100 | NC1CCC(Nc2cnc(N3CCC(C(F)(F)F)CC3)cn2)CC1 (stereo not shown) [Compound 52, N1-(5-(4-(trifluoromethyl)piperidin-1-yl)pyrazin-2-yl)cyclohexane-1,4-diamine] | – |
| 0.1 to 100 | NC1CCCCC1Nc1ccc(N2CCC(C(F)(F)F)CC2)cc1 (stereo not shown) [Compound 402, N1-(4-(4-(trifluoromethyl)piperidin-1-yl)phenyl)cyclohexane-1,2-diamine] | – |
| 0.1 to 100 | CC1(C)CCC(c2ccc(NC3CCC(CN)CC3)cc2)CC1 (stereo not shown) [Compound 78, N-(4-(aminomethyl)cyclohexyl)-4-(4,4-dimethylcyclohexyl)aniline] | – |
| 1000 to 10000 | NC1CCC(Nc2ccc(Cl)cc2)CC1 (stereo not shown) [Compound 161, N1-(4-chlorophenyl)cyclohexane-1,4-diamine] | – |
| 0.1 to 100 | Cc1cc(N2CCC(C(F)(F)F)CC2)c(F)cc1NC1CCC(C(N)=O)CC1 (stereo not shown) [Compound 435, 4-((5-fluoro-2-methyl-4-(4-(trifluoromethyl)piperidin-1-yl)phenyl)amino)cyclohexane-1-carboxamide] | – |
| 0.1 to 100 | Cc1nc(N2CCC(C)CC2)ccc1NC1CCC(CN)CC1 (stereo not shown) [Compound 26, N-(4-(aminomethyl)cyclohexyl)-2-methyl-6-(4-methylpiperidin-1-yl)pyridin-3-amine] | – |
| 0.1 to 100 | CCNC1C[C@@H]2CC(Nc3ccc(N4CCC(C(F)(F)F)CC4)cc3F)C[C@@H]2C1 (stereo partly drawn) [Compound 373, (3aR,6aS)-N2-ethyl-N5-(2-fluoro-4-(4-(trifluoromethyl)piperidin-1-yl)phenyl)octahydropentalene-2,5-diamine] | – |
| 0.1 to 100 | CCCCCc1ccc(NC2CCC(N)CC2)cc1 (stereo not shown) [Compound 136, N1-(4-pentylphenyl)cyclohexane-1,4-diamine] | – |
| 1000 to 10000 | NC1CCC(Nc2cccnc2)CC1 (stereo not shown) [Compound 163, N1-(pyridin-3-yl)cyclohexane-1,4-diamine] | – |
